Results reported in PubChem BioAssay (NCI).
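Results reflect a 48-hour exposure of cells in 96-well plates to compound at five concentrations. TGI: concentration producing complete growth inhibition.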

Key:
Assay in all cases: NCI tumour cell line growth inhibition, 48 h
SNB-78 CNS = test system: SNB-78 CNS
DMS 273 small cell lung = test system: DMS 273 small cell lung
KM20L2 colon = test system: KM20L2 colon
DLD-1 colon = test system: DLD-1 colon
M19-MEL melanoma = test system: M19-MEL melanoma
XF 498 CNS = test system: XF 498 CNS
DMS 114 small cell lung = test system: DMS 114 small cell lung
LXFL 529 NSCLC = test system: LXFL 529 NSCLC
SN12K1 renal = test system: SN12K1 renal
HOP-18 NSCLC = test system: HOP-18 NSCLC
P388 leukemia = test system: P388 leukemia
P388/ADR leukemia = test system: P388/ADR leukemia
RXF-631 renal = test system: RXF-631 renal

In the case of `CC(C)=CCC/C(C)=C/Cc1c(O)ccc2c1[nH]c1cc(O)c(C)cc12`, the TGI (SNB-78 CNS) is reported as over 25 µM, the TGI (DMS 273 small cell lung) is reported as over 25 µM and the TGI (KM20L2 colon) is reported as over 25 µM. It also gave a TGI (DLD-1 colon) of over 25 µM, a TGI (M19-MEL melanoma) of over 25 µM and a TGI (XF 498 CNS) of over 25 µM. For the same molecule, the TGI (DMS 114 small cell lung) was over 25 µM and the TGI (LXFL 529 NSCLC) was over 25 µM.

For `CCOC(=O)CN1CCSC1=NC#N`, the TGI (SNB-78 CNS) was over 100 µM, the TGI (DMS 273 small cell lung) was over 100 µM and the TGI (SN12K1 renal) was over 100 µM. The TGI (KM20L2 colon) was over 100 µM, the TGI (DLD-1 colon) was over 100 µM and the TGI (M19-MEL melanoma) was over 100 µM. For the same molecule, the TGI (HOP-18 NSCLC) was over 100 µM, the TGI (XF 498 CNS) was over 100 µM and the TGI (DMS 114 small cell lung) was over 100 µM. The TGI (P388 leukemia) was over 100 µM and the TGI (P388/ADR leukemia) was over 100 µM.

`CN(C)c1ccc(/C=C/c2cc[n+](C)c3ccccc23)cc1` gave a TGI (SNB-78 CNS) of 72.4 µM, a TGI (DMS 273 small cell lung) of 10.8 µM and a TGI (KM20L2 colon) of 13.1 µM. The TGI (DLD-1 colon) was 17.1 µM, the TGI (M19-MEL melanoma) was 14.9 µM and the TGI (HOP-18 NSCLC) was 19.9 µM. The TGI (DMS 114 small cell lung) was 9.5 µM and the TGI (LXFL 529 NSCLC) was 13.5 µM.

`CC(Oc1ccc(OCC2CCCCC2)cc1)C(=O)N(CCO)CCO` (configuration not stated) showed a TGI (SNB-78 CNS) of over 100 µM, a TGI (DMS 273 small cell lung) of over 100 µM and a TGI (M19-MEL melanoma) of over 100 µM. It also gave a TGI (HOP-18 NSCLC) of over 100 µM, a TGI (XF 498 CNS) of over 100 µM and a TGI (DMS 114 small cell lung) of over 100 µM. It also gave a TGI (LXFL 529 NSCLC) of over 100 µM.

In the case of `C=CC12CN(C)C3C4COC(CC41)C1(C(=O)Nc4ccccc41)C32` (configuration not stated), the TGI (SNB-78 CNS) is reported as over 200 µM, the TGI (DMS 273 small cell lung) is reported as over 200 µM and the TGI (SN12K1 renal) is reported as over 200 µM. For the same molecule, the TGI (KM20L2 colon) was over 200 µM, the TGI (DLD-1 colon) was over 200 µM and the TGI (M19-MEL melanoma) was over 200 µM. It also gave a TGI (HOP-18 NSCLC) of over 200 µM, a TGI (XF 498 CNS) of 29.2 µM and a TGI (DMS 114 small cell lung) of over 200 µM. The TGI (P388 leukemia) was over 133 µM and the TGI (P388/ADR leukemia) was over 200 µM.

`O=C(Nc1ccc([N+](=O)[O-])cc1)C(=O)C(C(=O)c1ccccc1F)C1OC(=O)c2ccccc21` (configuration not stated) gave a TGI (RXF-631 renal) of 84 µM, a TGI (SNB-78 CNS) of over 100 µM and a TGI (DMS 273 small cell lung) of over 100 µM. The TGI (KM20L2 colon) was over 100 µM, the TGI (DLD-1 colon) was over 100 µM and the TGI (M19-MEL melanoma) was over 100 µM. The TGI (XF 498 CNS) was over 100 µM, the TGI (DMS 114 small cell lung) was 98 µM and the TGI (LXFL 529 NSCLC) was over 100 µM.

`CC(=O)O[C@]12CCC[C@H]1C1(O)C(O)CCC[C@H]12` (some centres not stated) was tested, and the TGI (SNB-78 CNS) was over 100 µM, the TGI (DMS 273 small cell lung) was over 100 µM and the TGI (KM20L2 colon) was over 100 µM. For the same molecule, the TGI (M19-MEL melanoma) was over 100 µM, the TGI (HOP-18 NSCLC) was over 100 µM and the TGI (XF 498 CNS) was over 100 µM. It also gave a TGI (DMS 114 small cell lung) of over 100 µM and a TGI (LXFL 529 NSCLC) of over 100 µM.

In the case of `Cn1c(=O)nc2n(-c3ccc(Cl)cc3Cl)c3ccccc3nc-2c1=O`, the TGI (SNB-78 CNS) is reported as 39.3 µM, the TGI (KM20L2 colon) is reported as 5.8 µM and the TGI (DLD-1 colon) is reported as 24.5 µM. It also gave a TGI (M19-MEL melanoma) of 2.91 µM, a TGI (HOP-18 NSCLC) of 23 µM and a TGI (XF 498 CNS) of 0.864 µM. For the same molecule, the TGI (DMS 114 small cell lung) was 4.26 µM.

`[O-]c1on[n+]2c1c(Nc1ccc(Cl)cc1)nc1ccccc12` showed a TGI (SNB-78 CNS) of over 100 µM, a TGI (DMS 273 small cell lung) of over 100 µM and a TGI (KM20L2 colon) of over 100 µM. The TGI (DLD-1 colon) was over 100 µM, the TGI (M19-MEL melanoma) was over 100 µM and the TGI (XF 498 CNS) was over 100 µM. It also gave a TGI (DMS 114 small cell lung) of over 100 µM and a TGI (LXFL 529 NSCLC) of over 100 µM.

Work on `OC(c1ccccc1)(c1ccccc1)c1cccnc1` yielded a TGI (SNB-78 CNS) of over 100 µM, a TGI (DMS 273 small cell lung) of over 100 µM and a TGI (KM20L2 colon) of over 100 µM. The TGI (DLD-1 colon) was over 100 µM, the TGI (M19-MEL melanoma) was over 100 µM and the TGI (HOP-18 NSCLC) was over 100 µM. For the same molecule, the TGI (XF 498 CNS) was over 100 µM and the TGI (DMS 114 small cell lung) was over 100 µM.

In the case of `CC(CCc1ccc2c(c1)c(=N)c1ccc(N)cc1n2O)CC(C)(C)C` (configuration not stated), the TGI (SNB-78 CNS) is reported as 4.32 µM, the TGI (DMS 273 small cell lung) is reported as 3.85 µM and the TGI (KM20L2 colon) is reported as 2.74 µM. The TGI (DLD-1 colon) was 3.5 µM, the TGI (M19-MEL melanoma) was 2.98 µM and the TGI (HOP-18 NSCLC) was 3.35 µM. The TGI (XF 498 CNS) was 2.45 µM.
